Laboratory results as given in ChEMBL document CHEMBL3044697, “Natural products-based insecticidal agents 13. Semisynthesis and insecticidal activity of novel phenazine derivatives of 4β-acyloxypodophyllotoxin modified in the E-ring against Mythimna separata Walker in vivo” (2013).
Calls of active or inactive are those of the source. No cut-off for these calls is given here.

How the values were obtained:
[1] = system: Mythimna separata; test: Insecticidal activity against Mythimna separata (Oriental armyworm) pre-third-instar larvae fed on 1 mg/ml compound pre-treated wheat leaves assessed as insect mortality measured after 34 days by leaf-dipping method; format: functional
[2] = system: Mythimna separata; test: Insecticidal activity against Mythimna separata (Oriental armyworm) pre-third-instar larvae fed on 1 mg/ml compound pre-treated wheat leaves assessed as insect mortality measured after 10 days by leaf-dipping method; format: functional
[3] = system: Mythimna separata; test: Insecticidal activity against Mythimna separata (Oriental armyworm) pre-third-instar larvae fed on 1 mg/ml compound pre-treated wheat leaves assessed as induction of malformation of pupae measured during pupation period by leaf-dipping method; format: functional, organism-based
[4] = system: Mythimna separata; test: Insecticidal activity against Mythimna separata (Oriental armyworm) pre-third-instar larvae fed on 1 mg/ml compound pre-treated wheat leaves assessed as insect mortality by leaf-dipping method; format: functional, organism-based; conditions: TDE = time-dependent effect
[5] = system: Mythimna separata; test: Insecticidal activity against Mythimna separata (Oriental armyworm) pre-third-instar larvae fed on 1 mg/ml compound pre-treated wheat leaves assessed as insect mortality measured after 20 days by leaf-dipping method; format: functional
[6] = system: Mythimna separata; test: Insecticidal activity against Mythimna separata (Oriental armyworm) pre-third-instar larvae fed on 1 mg/ml compound pre-treated wheat leaves assessed as induction of malformation of pupae with imperfect wings measured during emergence period by leaf-dipping method; format: functional, organism-based

SMILES	mortality [1] [%]	mortality [2] [%]	Activity [3]	Activity [4]	mortality [5] [%]	Activity [6]
COc1cc([C@@H]2c3cc4c(cc3[C@@H](OC(=O)c3ccccc3Cl)[C@H]3COC(=O)[C@H]23)OCO4)cc2nc3ccccc3nc12	51.7	10	Active	tde	20.7	
CCCCCCCCCCCC(=O)O[C@@H]1c2cc3c(cc2[C@@H](c2cc(OC)c4nc5ccccc5nc4c2)[C@H]2C(=O)OC[C@@H]21)OCO3	34.5	0	Active	tde	6.9	
CCCCCCCCCCCCCCCC(=O)O[C@@H]1c2cc3c(cc2[C@@H](c2cc(OC)c4nc5ccccc5nc4c2)[C@H]2C(=O)OC[C@@H]21)OCO3	27.6	0		tde	6.9	
CCC(=O)O[C@@H]1c2cc3c(cc2[C@@H](c2cc(OC)c4nc5ccccc5nc4c2)[C@H]2C(=O)OC[C@@H]21)OCO3	55.2	20		tde	27.6	Active
CCCCCCCCCCC(=O)O[C@@H]1c2cc3c(cc2[C@@H](c2cc(OC)c4nc5ccccc5nc4c2)[C@H]2C(=O)OC[C@@H]21)OCO3	37.9	0	Active	tde	10.3	Active
COc1cc([C@@H]2c3cc4c(cc3[C@@H](OC(=O)c3ccc(Cl)cc3)[C@H]3COC(=O)[C@H]23)OCO4)cc2nc3ccccc3nc12	48.3	0		tde	17.2	
COc1cc([C@@H]2c3cc4c(cc3[C@@H](OC(=O)c3ccccc3)[C@H]3COC(=O)[C@H]23)OCO4)cc2nc3ccccc3nc12	24.1	3.3		tde	17.2	
COc1cc([C@@H]2c3cc4c(cc3[C@@H](OC(=O)Cc3ccc5ccccc5c3)[C@H]3COC(=O)[C@H]23)OCO4)cc2nc3ccccc3nc12	51.7	3.3		tde	6.9	Active
COc1cc([C@@H]2c3cc4c(cc3[C@@H](OC(=O)c3cccc(Cl)c3)[C@H]3COC(=O)[C@H]23)OCO4)cc2nc3ccccc3nc12	41.4	6.7	Active	tde	17.2	
CCCC(=O)O[C@@H]1c2cc3c(cc2[C@@H](c2cc(OC)c4nc5ccccc5nc4c2)[C@H]2C(=O)OC[C@@H]21)OCO3	37.9	3.3		tde	10.3	Active
COc1cc([C@@H]2c3cc4c(cc3[C@@H](OC(=O)c3cccc(C)c3)[C@H]3COC(=O)[C@H]23)OCO4)cc2nc3ccccc3nc12	41.4	6.7		tde	13.8	Active
COc1cc([C@@H]2c3cc4c(cc3[C@@H](OC(=O)c3ccc([N+](=O)[O-])cc3)[C@H]3COC(=O)[C@H]23)OCO4)cc2nc3ccccc3nc12	37.9	3.3		tde	13.8	
CC(=O)O[C@@H]1C[C@H](O)[C@@]23CO[C@@H](O)[C@]1(C)[C@@H]2C[C@@H](O)[C@]1(C)[C@@H]3C(=O)[C@H](OC(C)=O)[C@@]2(C)[C@H](c3ccoc3)C[C@H]3O[C@]321 [TOOSENDANIN]	51.7	10		tde	27.6	
COc1cc([C@@H]2c3cc4c(cc3[C@@H](OC(=O)c3ccc(Cl)c([N+](=O)[O-])c3)[C@H]3COC(=O)[C@H]23)OCO4)cc2nc3ccccc3nc12	55.2	10		tde	27.6	Active
COc1cc([C@@H]2c3cc4c(cc3[C@@H](O)[C@H]3COC(=O)[C@H]23)OCO4)cc2nc3ccccc3nc12	31	3.3	Active	tde	13.8	
COc1cc([C@@H]2c3cc4c(cc3[C@@H](O)[C@H]3COC(=O)[C@H]23)OCO4)cc(OC)c1O [4'-DEMETHYLEPIPODOPHYLLOTOXIN]	37.9	6.7		tde	13.8	
COc1cc([C@@H]2c3cc4c(cc3[C@@H](OC(C)=O)[C@H]3COC(=O)[C@H]23)OCO4)cc2nc3ccccc3nc12	41.4	6.7		tde	20.7	
COc1cc([C@@H]2c3cc4c(cc3[C@H](O)[C@H]3COC(=O)[C@H]23)OCO4)cc(OC)c1OC [PODOFILOX]	34.5	6.7		tde	17.2	
